Literature values as cited in patent US20060139426A1, “Ink, ink set, processing solution, recording method, recording medium, ink tank, and recording device” (Fuji Xerox Co., Ltd., priority 2004, published 2006).

For `O=C(O)c1ccco1` [2-Furancarboxylic acid], the pKa is listed as 2.4.
